Data taken from publication PMC6494879, “Drug resistance emergence in macaques administered cabotegravir long-acting for pre-exposure prophylaxis during acute SHIV infection” (Nature Communications, 2019).
pEC50: −log10 of the molar value.

How the values were obtained:
[1] = test system: SIV integrase E92Q/G140R (SIV IN RTV pseudovirus); type: cell-based; details: E92Q/G140R SIV integrase mutant
[2] = test system: SIV integrase G118R (SIV IN RTV pseudovirus); type: cell-based; details: G118R SIV integrase mutant
[3] = test system: SIV integrase I72T (SIV IN RTV pseudovirus); assay: organism not typed; type: cell-based; details: for pEC50: HEK293
[4] = test system: SIV integrase E92G (SIV IN RTV pseudovirus)
[5] = test system: SIV integrase Q124R (SIV IN RTV pseudovirus); assay: organism not typed; type: cell-based; details: for pEC50: HEK293
[6] = test system: SIV integrase E92Q (SIV IN RTV pseudovirus); type: cell-based; details: E92Q SIV integrase mutant
[7] = test system: SIV integrase A122T (SIV IN RTV pseudovirus); assay: organism not typed; type: cell-based; details: for pEC50: HEK293
[8] = test system: SIV integrase WT (SIV IN RTV pseudovirus); assay: organism not typed; type: cell-based; details: for pEC50: HEK293; for fold-change relative to wild type integrase: WT SIV integrase
[9] = test system: SIV integrase I250V (SIV IN RTV pseudovirus); assay: organism not typed; type: cell-based; details: for pEC50: HEK293
[10] = test system: SIV integrase I110V (SIV IN RTV pseudovirus); assay: organism not typed; type: cell-based; details: for pEC50: HEK293
[11] = test system: SIV integrase G118R/A122T (SIV IN RTV pseudovirus); type: cell-based; details: G118R/A122T SIV integrase mutant
[12] = test system: SIV integrase G140R (SIV IN RTV pseudovirus); assay: organism not typed; type: cell-based; details: for pEC50: HEK293
HIV integrase G140S/A/C = details: cited from earlier work

Structure (SMILES) | fold-change relative to wild type integrase [1] | fold-change relative to wild type integrase [2] | pEC50 [3] | fold-change relative to wild type integrase [3] | pEC50 [4] | fold-change relative to wild type integrase [4] | pEC50 [5] | fold-change relative to wild type integrase [5] | fold-change relative to wild type integrase [6] | pEC50 [7] | fold-change relative to wild type integrase [7] | pEC50 [8] | fold-change relative to wild type integrase [8] | pEC50 [9] | fold-change relative to wild type integrase [9] | pEC50 [10] | fold-change relative to wild type integrase [10] | fold-change relative to wild type integrase [11] | pEC50 [12] | fold-change relative to wild type integrase [12] | also measured
O=C(NCc1c(F)cc(F)cc1F)c1cn2c(c(O)c1=O)C(=O)N1[C@H]3CC[C@H](C3)O[C@@H]1C2 [BIC, bictegravir] | >1000 (>1000) fold | >1000 (>1000) fold | 8.82 | 1.5 fold | 8.37 | 4.3 fold | 8.83 | 1.5 fold | 2.0 fold | 8.68 | 2.1 fold | 9.00 | 1 fold | 8.81 | 1.6 fold | 8.75 | 1.8 fold | >1000 (>1000) fold | < 6.00 | >1000 (>1000) fold | –
C[C@@H]1CCO[C@H]2Cn3cc(C(=O)NCc4ccc(F)cc4F)c(=O)c(O)c3C(=O)N12 [DTG, dolutegravir] | >1000 (>1000) fold | >1000 (>1000) fold | 8.94 | 1.1 fold | 8.56 | 2.8 fold | 8.79 | 1.6 fold | 1.5 fold | 8.85 | 1.4 fold | 9.00 | 1 fold | 9.04 | 0.9 fold | 8.82 | 1.5 fold | >1000 (>1000) fold | < 6.00 | >1000 (>1000) fold | fold reduced susceptibility of HIV with G140S/A/C (HIV integrase G140S/A/C): 10-100 fold
O=C1Nc2ccc(Cl)cc2[C@@](C#CC2CC2)(C(F)(F)F)O1 [EFV, efavirenz] | 1.9 fold | 1.5 fold | 9.22 | 0.9 fold | 9.00 | 1.5 fold | 9.15 | 1.0 fold | 0.8 fold | 9.11 | 1.2 fold | 9.17 | 1 fold | 9.17 | 1.0 fold | 9.10 | 1.2 fold | 1.1 fold | 9.23 | 0.9 fold | –
COc1cc2c(cc1Cc1cccc(Cl)c1F)c(=O)c(C(=O)O)cn2[C@H](CO)C(C)C [EVG, elvitegravir] | > 807 fold | > 807 fold | 8.93 | 0.9 fold | 8.34 | 3.7 fold | 8.80 | 1.3 fold | 7.8 fold | 8.94 | 0.9 fold | 8.91 | 1 fold | 8.84 | 1.2 fold | 8.81 | 1.3 fold | > 807 fold | < 6.00 | > 807 fold | fold reduced susceptibility of HIV with G140S/A/C (HIV integrase G140S/A/C): 10-100 fold
Cc1nnc(C(=O)NC(C)(C)c2nc(C(=O)NCc3ccc(F)cc3)c(O)c(=O)n2C)o1 [RAL, raltegravir] | > 345 fold | > 345 fold | 8.56 | 0.9 fold | 8.09 | 2.8 fold | 8.34 | 1.6 fold | 3.6 fold | 8.38 | 1.4 fold | 8.54 | 1 fold | 8.40 | 1.4 fold | 8.42 | 1.3 fold | > 345 fold | < 6.00 | > 345 fold | fold reduced susceptibility of HIV with G140S/A/C (HIV integrase G140S/A/C): 10-100 fold
